In patent US20240368120A1 (Terns Pharmaceuticals, Inc., priority 2023, published 2024):

Target: T1, human GLP-1R receptor (Homo sapiens, UniProt P43220)
T1 construct: expressed in transfected cells
Experiment: GLP-1R low expression cell assay (cAMP TR-FRET, CHO-K1_hGLP-1Rlow_clone10 cells)
Assay type: cell-based
Conditions: for EC50: cAMP TR-FRET, 30 min at 25° C.; for Emax: maximum activation relative to control GLP-1 peptide agonist
In short: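 Readout is cAMP TR-FRET after 30 min compound stimulation at 25 °C of a low-GLP-1R-expressing CHO-K1 clone (1,000 cells/well), with 10-point 3-fold serial dilutions. Percent activation versus a control GLP-1 peptide, from duplicates, was Hill-fitted to give EC50.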

T1 sequence (P43220 24-463): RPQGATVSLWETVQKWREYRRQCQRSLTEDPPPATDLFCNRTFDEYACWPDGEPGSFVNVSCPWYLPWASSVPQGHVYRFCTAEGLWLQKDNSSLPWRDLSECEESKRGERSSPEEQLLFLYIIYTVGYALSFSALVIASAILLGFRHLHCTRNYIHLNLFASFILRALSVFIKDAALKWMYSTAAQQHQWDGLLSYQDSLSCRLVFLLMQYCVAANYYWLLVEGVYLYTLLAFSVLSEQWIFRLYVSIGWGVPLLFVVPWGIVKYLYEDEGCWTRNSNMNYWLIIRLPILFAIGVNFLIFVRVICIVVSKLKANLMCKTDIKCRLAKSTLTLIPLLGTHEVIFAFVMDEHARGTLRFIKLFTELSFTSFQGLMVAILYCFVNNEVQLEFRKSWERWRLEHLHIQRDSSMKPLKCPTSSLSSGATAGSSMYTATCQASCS

| EC50 [nM] | Emax [%] | SMILES |
| --- | --- | --- |
| 100 to 1000 | > 85 | COc1cc(C(=O)O)cc2c1nc(CN1CCC(c3cccc4c3OC[C@@H](c3ccc(C#N)cc3F)O4)CC1)n2C [Compound 278, (R)-2-((4-(2-(4-Cyano-2-fluorophenyl)-2,3-dihydrobenzo[b][1,4]dioxin-5-yl)piperidin-1-yl)methyl)-4-methoxy-1-methyl-1H-benzo[d]imidazole-6-carboxylic acid] |
| < 10 | 50 to 85 | COc1cc(-c2nnn[nH]2)cc2c1nc(CN1CCC(c3cccc(OCc4ccc(Cl)cc4F)n3)CC1)n2C[C@@H]1CCO1 [Compound 279, (S)-2-((4-(6-((4-Chloro-2-fluorobenzyl)oxy)pyridin-2-yl)piperidin-1-yl)methyl)-4-methoxy-1-(oxetan-2-ylmethyl)-6-(1H-tetrazol-5-yl)-1H-benzo[d]imidazole] |
| > 1000 | 50 to 85 | CNC(=O)c1cc(OC)c2nc(CN3CCC(c4cccc(OCc5ccc(Cl)cc5F)n4)CC3)n(C)c2c1 [Compound 280, 2-((4-(6-((4-chloro-2-fluorobenzyl)oxy)pyridin-2-yl)piperidin-1-yl)methyl)-4-methoxy-N, 1-dimethyl-1H-benzo[d]imidazole-6-carboxamide] |
| > 1000 | 50 to 85 | Cn1c(CN2CCC(c3cccc(OCc4ccc(Cl)cc4F)c3)CC2)nc2c(OC(F)F)cc(N3CC(=O)NS3(=O)=O)cc21 [Compound 281, 5-(2-((4-(3-((4-Chloro-2-fluorobenzyl)oxy)phenyl)piperidin-1-yl)methyl)-4-(difluoromethoxy)-1-methyl-1H-benzo[d]imidazol-6-yl)-1,2,5-thiadiazolidin-3-one 1,1-dioxide] |
| < 10 | > 85 | COc1cc(C(=O)O)cc2c1nc(Cc1cc(F)c(-c3cccc(OCc4ccc(Cl)cc4F)n3)cc1F)n2C [Compound 282, 2-(4-(6-((4-Chloro-2-fluorobenzyl)oxy)pyridin-2-yl)-2,5-difluorobenzyl)-4-methoxy-1-methyl-1H-benzo[d]imidazole-6-carboxylic acid] |
| < 10 | > 85 | COc1cc(C(=O)O)cc2c1nc(CN1CCC(c3cccc(OCc4ccc(C#N)c5c4OCC5)n3)CC1)n2C [Compound 283, 2-((4-(6-((4-Cyano-2,3-dihydrobenzofuran-7-yl)methoxy)pyridin-2-yl)piperidin-1-yl)methyl)-4-methoxy-1-methyl-1H-benzo[d]imidazole-6-carboxylic acid] |
| 10 to 100 | > 85 | [2H]C([2H])(C)Oc1cc(C(=O)O)cc2c1nc(CN1CCC(c3cccc(OCc4ccc(Cl)cc4F)c3)CC1)n2C [Compound 284, 2-((4-(3-((4-Chloro-2-fluorobenzyl)oxy)phenyl)piperidin-1-yl)methyl)-4-(ethoxy-1,1-d2)-1-methyl-1H-benzo[d]imidazole-6-carboxylic acid] |
| < 10 | > 85 | [2H]C([2H])(C)Oc1cc(C(=O)O)cc2c1nc(CN1CCC(c3cccc(OC([2H])([2H])c4ccc(C#N)cc4F)n3)CC1)n2C [Compound 285, 2-((4-(6-((4-Cyano-2-fluorophenyl)methoxy-d2)pyridin-2-yl)piperidin-1-yl)methyl)-4-(ethoxy-1,1-d2)-1-methyl-1H-benzo[d]imidazole-6-carboxylic acid] |
| < 10 | > 85 | [2H]C([2H])(C)Oc1cc(C(=O)O)cc2c1nc(CN1CCC(c3cccc(OC([2H])([2H])c4ccc(Cl)cc4F)n3)CC1)n2C [Compound 286, 2-((4-(6-((4-Chloro-2-fluorophenyl)methoxy-d2)pyridin-2-yl)piperidin-1-yl)methyl)-4-(ethoxy-1,1-d2)-1-methyl-1H-benzo[d]imidazole-6-carboxylic acid] |
| > 1000 | > 85 | CCOc1cc(C(=O)O)cc2c1nc(CN1CCC(c3cccc4c3O[C@@H](c3ccc(C#N)cc3F)CO4)CC1)n2C [Compound 287, (S)-2-((4-(3-(4-Cyano-2-fluorophenyl)-2,3-dihydrobenzo[b][1,4]dioxin-5-yl)piperidin-1-yl)methyl)-4-ethoxy-1-methyl-1H-benzo[d]imidazole-6-carboxylic acid] |
| 10 to 100 | > 85 | CCOc1cc(C(=O)O)cc2c1nc(CN1CCC(c3cccc4c3O[C@H](c3ccc(C#N)cc3F)CO4)CC1)n2C [Compound 288, (R)-2-((4-(3-(4-Cyano-2-fluorophenyl)-2,3-dihydrobenzo[b][1,4]dioxin-5-yl)piperidin-1-yl)methyl)-4-ethoxy-1-methyl-1H-benzo[d]imidazole-6-carboxylic acid] |
| 100 to 1000 | > 85 | Cn1c(CN2CCC(c3cccc(OCc4ccc(C#N)cc4F)n3)CC2)nc2c3c(c(C(=O)O)cc21)OCCO3 [Compound 289, 2-((4-(6-((4-Cyano-2-fluorobenzyl)oxy)pyridin-2-yl)piperidin-1-yl)methyl)-3-methyl-7,8-dihydro-3H-[1,4]dioxino[2′,3′:3,4]benzo[1,2-d]imidazole-5-carboxylic acid] |
| < 10 | > 85 | CCOc1cc(C(=O)O)cc2c1nc(CN1CCC(Oc3cccc(COc4ccc(C#N)cc4F)n3)CC1)n2C [Compound 290, 2-((4-((6-((4-Cyano-2-fluorophenoxy)methyl)pyridin-2-yl)oxy)piperidin-1-yl)methyl)-4-ethoxy-1-methyl-1H-benzo[d]imidazole-6-carboxylic acid] |
| < 10 | > 85 | Cn1c(CN2CCC(c3cccc(OCc4ccc(C#N)cc4F)n3)CC2)nc2c(OCCO)cc(C(=O)O)cc21 [Compound 291, 2-((4-(6-((4-Cyano-2-fluorobenzyl)oxy)pyridin-2-yl)piperidin-1-yl)methyl)-4-(2-hydroxyethoxy)-1-methyl-1H-benzo[d]imidazole-6-carboxylic acid] |
| < 10 | > 85 | COc1cc(C(=O)O)cc2c1nc(Cc1ccc(-c3cccc(OCc4ccc(Cl)cc4F)n3)cc1F)n2C [Compound 292, 2-(4-(6-((4-Chloro-2-fluorobenzyl)oxy)pyridin-2-yl)-2-fluorobenzyl)-4-methoxy-1-methyl-1H-benzo[d]imidazole-6-carboxylic acid] |
| < 10 | > 85 | CCOc1cc(C(=O)O)cc2c1nc(Cc1ccc(-c3cccc(OCc4ccc(C#N)cc4F)n3)cc1F)n2C [Compound 293, 2-(4-(6-((4-Cyano-2-fluorobenzyl)oxy)pyridin-2-yl)-2-fluorobenzyl)-4-ethoxy-1-methyl-1H-benzo[d]imidazole-6-carboxylic acid] |
| 10 to 100 | > 85 | COc1cc(C(=O)O)cc2c1nc(CN1CCC(c3cccc4c3O[C@H](c3ccc(C#N)cc3F)CO4)CC1)n2C [Compound 310, (R)-2-((4-(3-(4-cyano-2-fluorophenyl)-2,3-dihydrobenzo[b][1,4]dioxin-5-yl)piperidin-1-yl)methyl)-4-methoxy-1-methyl-1H-benzo[d]imidazole-6-carboxylic acid] |
| 10 to 100 | > 85 | Cn1c(CN2CCC(c3cccc(OCc4ccc(Cl)cc4F)n3)CC2)nc2c3c(c(C(=O)O)cc21)OCCO3 [Compound 311, 2-((4-(6-((4-chloro-2-fluorobenzyl)oxy)pyridin-2-yl)piperidin-1-yl)methyl)-3-methyl-7,8-dihydro-3H-[1,4]dioxino[2′,3′:3,4]benzo[1,2-d]imidazole-5-carboxylic acid] |
| 10 to 100 | > 85 | C[C@@H](F)Oc1cc(C(=O)O)cc2c1nc(CN1CCC(c3cccc(OCc4ccc(C#N)cc4F)n3)CC1)n2C [Compound 312, (R)-2-((4-(6-((4-Cyano-2-fluorobenzyl)oxy)pyridin-2-yl)piperidin-1-yl)methyl)-4-(1-fluoroethoxy)-1-methyl-1H-benzo[d]imidazole-6-carboxylic acid] |
| 10 to 100 | > 85 | C[C@H](F)Oc1cc(C(=O)O)cc2c1nc(CN1CCC(c3cccc(OCc4ccc(C#N)cc4F)n3)CC1)n2C [Compound 313, (S)-2-((4-(6-((4-Cyano-2-fluorobenzyl)oxy)pyridin-2-yl)piperidin-1-yl)methyl)-4-(1-fluoroethoxy)-1-methyl-1H-benzo[d]imidazole-6-carboxylic acid] |
| > 1000 | 25 to 50 | COc1cc(C(=O)O)cc2c1nc(CN1CCC(c3cccc4c3O[C@@H](c3ccc(C#N)cc3F)CO4)CC1)n2C [Compound 314, (S)-2-((4-(3-(4-Cyano-2-fluorophenyl)-2,3-dihydrobenzo[b][1,4]dioxin-5-yl)piperidin-1-yl)methyl)-4-methoxy-1-methyl-1H-benzo[d]imidazole-6-carboxylic acid] |
| 10 to 100 | > 85 | Cn1c(CN2CCC(c3cccc4c3O[C@H](c3ccc(C#N)cc3F)CO4)CC2)nc2c(OCCF)cc(C(=O)O)cc21 [Compound 315, (R)-2-((4-(3-(4-Cyano-2-fluorophenyl)-2,3-dihydrobenzo[b][1,4]dioxin-5-yl)piperidin-1-yl)methyl)-4-(2-fluoroethoxy)-1-methyl-1H-benzo[d]imidazole-6-carboxylic acid] |
| 100 to 1000 | 50 to 85 | Cn1c(CN2CCC(c3cccc(OCc4ccc(Cl)cc4F)n3)CC2)nc2c(OC(F)F)cc(-c3cc(O)no3)cc21 [Compound 316, 5-(2-((4-(6-((4-Chloro-2-fluorobenzyl)oxy)pyridin-2-yl)piperidin-1-yl)methyl)-4-(difluoromethoxy)-1-methyl-1H-benzo[d]imidazol-6-yl) isoxazol-3-ol] |

| SMILES | EC50 [nM] | Emax [%] |
| --- | --- | --- |
| CO[C@H]1C[C@H](Oc2cc(C(=O)O)cc3c2nc(CN2CCC(c4cccc(OCc5ccc(C#N)cc5F)n4)CC2)n3C)C1 [Compound 317, 2-((4-(6-((4-Cyano-2-fluorobenzyl)oxy)pyridin-2-yl)piperidin-1-yl)methyl)-4-((1r,3r)-3-methoxycyclobutoxy)-1-methyl-1H-benzo[d]imidazole-6-carboxylic acid] | 100 to 1000 | > 85 |
